Activity calls are given as the source filed them. No cut-off for these calls is given here.
Columns and labels:
Staphylococcus aureus [1] = test: Bactericidal activity against methicillin resistant Staphylococcus aureus N315 cultured in MH medium assessed as reduction in bacterial survival incubated for 48 hrs by microbroth dilution method; assay type: functional; settings: N315, 48 h
Pseudomonas aeruginosa [2] = test: Antibacterial activity against Pseudomonas aeruginosa ATCC 9027 cultured in MH medium assessed as reduction in bacterial growth incubated for 48 hrs by microbroth dilution method; assay type: functional; settings: ATCC 9027, 48 h
Staphylococcus aureus [3] = test: Antibacterial activity against methicillin resistant Staphylococcus aureus 6347 cultured in MH medium assessed as reduction in bacterial growth incubated for 48 hrs by microbroth dilution method; assay type: functional; settings: Staphylococcus aureus, 6347, 48 h
Serratia marcescens = test: Antibacterial activity against Serratia marcescens ATCC 12795 cultured in MH medium assessed as reduction in bacterial growth incubated for 48 hrs by microbroth dilution method; assay type: functional; settings: ATCC 12795, 48 h
Escherichia coli [4] = test: Antibacterial activity against Escherichia coli ATCC 8739 assessed as reduction in cell number with morphological disorders at 128 ug/ml incubated for 30 mins by laser confocal microscopy; assay type: functional, organism-based
Escherichia coli [5] = test: Antibacterial activity against Escherichia coli ATCC 8739 assessed as bacterial cell swelling followed by non-divisional long cord formation and cell aggregates formation at 128 ug/ml incubated for 30 mins by laser confocal microscopy; assay type: functional, organism-based
DNA gyrase = DNA gyrase (Escherichia coli, UniProt P0AES4+P0AES6); test: Inhibition of Escherichia coli DNA gyrase super-coiling activity using relaxed pNO1 DNA as substrate incubated for 30 mins by fluorescence assay; assay type: protein-complex assay
Escherichia coli [6] = test: (§1) Induction of inner membrane permeabilization in Escherichia coli ATCC 8739 assessed as increase in release of cytoplasmic beta galactosidase using ONPG as substrate at 128 ug/ml incubated for 90 mins compound added with bacterial cells after lag time of about 10 mins by spectrophotometry; assay type: organism-based
Staphylococcus aureus [7] = test: Antibiofilm activity against Staphylococcus aureus ATCC 6538 assessed as biofilm formation at 0.5 times antibacterial MIC incubated for 24 hrs compound added prior to bacterial biofilm formation by total biomass crystal violet staining-based method relative to control; assay type: functional
Staphylococcus aureus [8] = test: Antibiofilm activity against Staphylococcus aureus ATCC 25923 pre-formed mature biofilm assessed as reduction in biofilm viability at 40 uM incubated for 24 hrs compound added post-biofilm formation by resazurin staining based assay relative to control; assay type: functional; settings: ATCC 25923, 24 h
Staphylococcus aureus [9] = test: Antibiofilm activity against Staphylococcus aureus ATCC 25923 pre-formed mature biofilm assessed as reduction in biofilm biomass at 40 uM incubated for 24 hrs compound added post biofilm formation by crystal violet staining based assay relative to control; assay type: functional; settings: ATCC 25923, 24 h
Escherichia coli [10] = test: Antibacterial activity against […] Escherichia coli ATCC 8739 assessed as reduction in bacterial growth incubated for 48 hrs in presence of 50 ug/ml […], PAbetaN by microbroth dilution method; assay type: functional; settings: ATCC 8739, 48 h
Escherichia coli [11] = test: as §1, with “above bactericidal concentration” for “128 ug/ml”; assay type: organism-based
Pseudomonas aeruginosa [12] = test: Biofilm degradation activity against Pseudomonas aeruginosa ATCC 9027 assessed as biofilm formation at 2 times antibacterial MIC incubated for 24 hrs compound added post-biofilm formation by total biomass crystal violet staining-based method; assay type: functional
[13] = Drug uptake in Escherichia coli ATCC 8739 assessed as membrane accumulation and affinity to cell structure at 128 ug/ml incubated for 30 mins by laser confocal microscopy; assay type: ADME; settings: 0.5 h
[14] = Drug uptake in Escherichia coli ATCC 8739 assessed as cellular accumulation treated with 100 uM CCCP for 10 mins prior to compound challenge for 0.5 hrs by laser confocal microscopy; assay type: ADME
Enterococcus hirae = test: Bactericidal activity against Enterococcus hirae ATCC 1052 cultured in BHI medium assessed as reduction in bacterial survival incubated for 48 hrs by microbroth dilution method; assay type: functional; settings: ATCC 1052, 48 h
Staphylococcus aureus [15] = test: Antibiofilm activity against Staphylococcus aureus ATCC 25923 assessed as biofilm biomass at <0.625 uM incubated for 24 hrs compound added prior to bacterial biofilm formation by crystal violet staining based assay; assay type: functional, organism-based
[16] = system: Staphylococcus epidermidis; test: Resistance index, ratio of MIC for methicillin resistant Staphylococcus epidermidis ATCC 13199 measured after 4 dilution steps to MIC for Staphylococcus epidermidis ATCC 13199 measured after 48 hrs incubation by microbroth dilution method; assay type: functional
[17] = system: Staphylococcus epidermidis; test: Resistance index, ratio of MIC for methicillin resistant Staphylococcus epidermidis ATCC 13199 measured after 2 dilution steps to MIC for Staphylococcus epidermidis ATCC 13199 measured after 48 hrs incubation by microbroth dilution method; assay type: functional

| Compound | MBC (Staphylococcus aureus [1]) | MIC (Pseudomonas aeruginosa [2]) | MIC (Staphylococcus aureus [3]) | MIC (Serratia marcescens) | Activity (Escherichia coli [4]) | Activity (Escherichia coli [5]) | IC50 (DNA gyrase) | Activity (Escherichia coli [6]) | Activity (Staphylococcus aureus [7]) | inhibition at 40 µM (Staphylococcus aureus [8]) | inhibition at 40 µM (Staphylococcus aureus [9]) | MIC (Escherichia coli [10]) | Activity (Escherichia coli [11]) | Activity (Pseudomonas aeruginosa [12]) | Drug uptake [13] | Drug uptake [14] | MBC (Enterococcus hirae) | inhibition (Staphylococcus aureus [15]) | Ratio [16] | Ratio [17] |
| --- | --- | --- | --- | --- | --- | --- | --- | --- | --- | --- | --- | --- | --- | --- | --- | --- | --- | --- | --- | --- |
| O=C(O)C1=Cc2ccccc2N2C[N+]3(CCN(c4cc5c(cc4F)c(=O)c(C(=O)O)cn5C4CC4)CC3)N=C12.[Cl-] | 4 µg/mL | 2 µg/mL | 2 µg/mL | 1 µg/mL | Active | Active | 6.02 µM | Active | 6% | 100% | 50% | 0.25 µg/mL | Active | 39% | Not Active | Dose-dependent effect | – | – | – | – |
| CCn1cc(C(=O)O)c(=O)c2cc(F)c(N3CC[N+]4(CN5C(=N4)C(C(=O)O)=Cc4ccccc45)C(C)C3)c(F)c21.[Cl-] (configuration not stated) | 2 µg/mL | 1 µg/mL | 4 µg/mL | 2 µg/mL | – | – | 2.44 µM | – | 47% | – | – | 0.125 µg/mL | – | 51% | – | – | 512 µg/mL | inactive | – | – |
| CCn1cc(C(=O)O)c(=O)c2cc(F)c(N3CC[N+]4(CC3)CN3C(=N4)C(C(=O)O)=Cc4ccccc43)nc21.[Cl-] | 8 µg/mL | 1 µg/mL | 4 µg/mL | 8 µg/mL | – | – | – | – | 35% | – | – | 0.5 µg/mL | – | 43% | – | – | 512 µg/mL | inactive | 16 | 4 |
